According to patent US20060019994A1, “I-sulphonlyl piperidine derivatives” (priority 2002, published 2006):

Biological target: T1, proTNF-α convertase enzyme (TACE) (Homo sapiens, UniProt P78536)
T1 construct: a partially purified, isolated enzyme assay, the enzyme being obtained from the membranes of THP-1; endogenous in cells; host or cells: THP-1 cell membranes, partially purified
Assay: Isolated enzyme assay, proTNF-α convertase (TACE), partially purified enzyme from membranes of THP-1, fluorescent peptide substrate
Format: biochemical
Conditions: 26° C. for 4 hours, read-out: concentration causing 50% inhibition of TACE
Description: Recombinant human proMMP13 may be expressed and purified as described by Knauper et al. [V. Knauper et al., (1996) The Biochemical Journal 271:1544-1550 (1996)]. […] Activity is determined by measuring the fluorescence at λex 328 nm and λem 393 nm. Percent inhibition is calculated as follows: % Inhibition is equal to the [Fluorescenceplus inhibitor-Fluorescencebackground] divided by the [Fluorescenceminus inhibitor-Fluorescencebackground].
The ability of the compounds to inhibit proTNF-α convertase enzyme (TACE) may be assessed using a partially purified, isolated enzyme assay, the enzyme being obtained from the membranes of THP-1 as described by K. M. Mohler et al., (1994) Nature 370:218-220. The purified enzyme activity and inhibition thereof is determined by incubating the partially purified enzyme in the presence or absence of test compounds using the substrate 4′,5′-Dimethoxy-fluoresceinyl Ser.Pro.Leu.Ala.Gln.Ala.Val.Arg.Ser.Ser.Ser.Arg.Cys(4-(3-succinimid-1-yl)-fluorescein)-NH2 in assay buffer (50 mM Tris HCl, pH 7.4 containing 0.1% (w/v) Triton X-100 and 2 mM CaCl2), at 26° C. for 4 hours. The amount of inhibition is determined as for MMP13 except λex 485 nm and λem 538 nm were used. […]

T1 sequence (P78536 215-824): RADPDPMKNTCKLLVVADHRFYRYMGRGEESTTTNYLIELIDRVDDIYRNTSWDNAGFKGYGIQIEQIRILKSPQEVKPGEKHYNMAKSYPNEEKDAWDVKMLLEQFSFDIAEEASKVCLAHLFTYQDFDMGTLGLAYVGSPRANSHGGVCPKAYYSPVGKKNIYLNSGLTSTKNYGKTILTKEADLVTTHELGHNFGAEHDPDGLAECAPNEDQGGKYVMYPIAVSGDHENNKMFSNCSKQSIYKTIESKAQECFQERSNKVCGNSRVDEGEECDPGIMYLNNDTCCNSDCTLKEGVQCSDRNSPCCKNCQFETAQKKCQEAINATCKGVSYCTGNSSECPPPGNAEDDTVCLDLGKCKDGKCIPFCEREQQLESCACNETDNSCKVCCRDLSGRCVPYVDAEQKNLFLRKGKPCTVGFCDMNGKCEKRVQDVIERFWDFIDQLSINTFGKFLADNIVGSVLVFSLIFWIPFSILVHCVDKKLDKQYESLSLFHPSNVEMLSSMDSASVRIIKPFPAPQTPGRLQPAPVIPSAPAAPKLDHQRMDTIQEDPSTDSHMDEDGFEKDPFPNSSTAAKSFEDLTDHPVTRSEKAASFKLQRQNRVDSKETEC

## Cc1cc(COC2CCN(S(=O)(=O)CCC3NC(=O)NC3=O)CC2)c2ccccc2n1 (stereo not shown) [Example 3, 5-[2-({4-[(2-Methylquinolin-4-yl)methoxy]piperidin-1-yl}sulphonyl)ethyl]imidazolidine-2,4-dione]
  IC50: 0.63 µM
